The results in this text go back to ChEMBL document CHEMBL5625277, “Systematical mutational analysis of teriparatide on anti-osteoporosis activity by alanine scanning” (Bioorg Med Chem Lett, 2024).

This data set can be described thus: Cytotoxicity in pre-osteoblasts (unknown origin) assessed as cell death upto 5 uM by CCK8 assay. Type of data set: toxicity, cell-based. To be noted: pre-osteoblast. For orientation: Tetrazolium assays rely on reduction of a dye to a coloured formazan, in cell work by metabolically active cells.

In the case of `CC[C@H](C)[C@H](NC(=O)[C@H](CCC(=O)O)NC(=O)[C@H](CO)NC(=O)[C@@H](NC(=O)[C@H](CO)NC(C)=O)C(C)C)C(=O)N[C@@H](CCC(N)=O)C(=O)N[C@@H](CC(C)C)C(=O)N[C@@H](CCSC)C(=O)N[C@@H](Cc1cnc[nH]1)C(=O)N[C@@H](CC(N)=O)C(=O)N[C@@H](CC(C)C)C(=O)N[C@@H](C)C(=O)N[C@@H](CCCCN)C(=O)N[C@@H](Cc1cnc[nH]1)C(=O)N[C@@H](CC(C)C)C(=O)N[C@@H](CC(N)=O)C(=O)N[C@@H](CO)C(=O)N[C@@H](CCSC)C(=O)N[C@@H](CCC(=O)O)C(=O)N[C@@H](CCCNC(=N)N)C(=O)N[C@H](C(=O)N[C@@H](CCC(=O)O)C(=O)N[C@@H](Cc1c[nH]c2ccccc12)C(=O)N[C@@H](CC(C)C)C(=O)N[C@@H](CCCNC(=N)N)C(=O)N[C@@H](CCCCN)C(=O)N[C@@H](CCCCN)C(=O)N[C@@H](CC(C)C)C(=O)N[C@@H](CCC(N)=O)C(=O)N[C@@H](CC(=O)O)C(=O)N[C@H](C(=O)N[C@@H](Cc1cnc[nH]1)C(=O)N[C@@H](CC(N)=O)C(=O)N[C@@H](Cc1ccccc1)C(N)=O)C(C)C)C(C)C`, the Activity entry is “Non-Toxic”.

For the molecule `CC[C@H](C)[C@H](NC(=O)[C@H](CCC(=O)O)NC(=O)[C@H](CO)NC(=O)[C@@H](NC(=O)[C@H](CO)NC(C)=O)C(C)C)C(=O)N[C@@H](CCC(N)=O)C(=O)N[C@@H](CC(C)C)C(=O)N[C@@H](CCSC)C(=O)N[C@@H](Cc1cnc[nH]1)C(=O)N[C@@H](CC(N)=O)C(=O)N[C@@H](CC(C)C)C(=O)NCC(=O)N[C@@H](CCCCN)C(=O)N[C@@H](Cc1cnc[nH]1)C(=O)N[C@@H](CC(C)C)C(=O)N[C@@H](CC(N)=O)C(=O)N[C@@H](CO)C(=O)N[C@@H](CCSC)C(=O)N[C@@H](C)C(=O)N[C@@H](CCCNC(=N)N)C(=O)N[C@H](C(=O)N[C@@H](CCC(=O)O)C(=O)N[C@@H](Cc1c[nH]c2ccccc12)C(=O)N[C@@H](CC(C)C)C(=O)N[C@@H](CCCNC(=N)N)C(=O)N[C@@H](CCCCN)C(=O)N[C@@H](CCCCN)C(=O)N[C@@H](CC(C)C)C(=O)N[C@@H](CCC(N)=O)C(=O)N[C@@H](CC(=O)O)C(=O)N[C@H](C(=O)N[C@@H](Cc1cnc[nH]1)C(=O)N[C@@H](CC(N)=O)C(=O)N[C@@H](Cc1ccccc1)C(N)=O)C(C)C)C(C)C`, the Activity entry is “Non-Toxic”. Under `CC[C@H](C)[C@H](NC(=O)[C@H](CCC(=O)O)NC(=O)[C@H](CO)NC(=O)[C@@H](NC(=O)[C@H](CO)NC(C)=O)C(C)C)C(=O)N[C@@H](CCC(N)=O)C(=O)N[C@@H](CC(C)C)C(=O)N[C@@H](C)C(=O)N[C@@H](Cc1cnc[nH]1)C(=O)N[C@@H](CC(N)=O)C(=O)N[C@@H](CC(C)C)C(=O)NCC(=O)N[C@@H](CCCCN)C(=O)N[C@@H](Cc1cnc[nH]1)C(=O)N[C@@H](CC(C)C)C(=O)N[C@@H](CC(N)=O)C(=O)N[C@@H](CO)C(=O)N[C@@H](CCSC)C(=O)N[C@@H](CCC(=O)O)C(=O)N[C@@H](CCCNC(=N)N)C(=O)N[C@H](C(=O)N[C@@H](CCC(=O)O)C(=O)N[C@@H](Cc1c[nH]c2ccccc12)C(=O)N[C@@H](CC(C)C)C(=O)N[C@@H](CCCNC(=N)N)C(=O)N[C@@H](CCCCN)C(=O)N[C@@H](CCCCN)C(=O)N[C@@H](CC(C)C)C(=O)N[C@@H](CCC(N)=O)C(=O)N[C@@H](CC(=O)O)C(=O)N[C@H](C(=O)N[C@@H](Cc1cnc[nH]1)C(=O)N[C@@H](CC(N)=O)C(=O)N[C@@H](Cc1ccccc1)C(N)=O)C(C)C)C(C)C` stands “Non-Toxic”.
